# According to paper PMC3830731 (ACS chemical biology, 2013):
# Experiments:
# MtmOIV [1] = biological target: T1, MtmOIV (Streptomyces argillaceus, UniProt Q194P4); assay: X-ray crystal structure, […] Å; type: binding; conditions: non-covalently bound
# MtmOIV [2] = biological target: T1, MtmOIV; assay: NADPH oxidation, fluorescence; type: biochemical; conditions: 2 mM premithramycin B, 0.1 mM FAD, O2; 100 mM Tris-HCl pH 8.25, 30 °C
# MtmOIV [3] = biological target: MtmOIV (Streptomyces argillaceus, UniProt Q194P4, R173A, form not given); assay: NADPH oxidation, fluorescence; type: biochemical; conditions: 2 mM premithramycin B, 0.1 mM FAD, O2; 100 mM Tris-HCl pH 8.25, 30 °C
Km (MtmOIV [2]) [µM],Km (MtmOIV [3]) [µM],SMILES,"X-ray crystal structure, 2.0 Å (MtmOIV [1])"
,,Cc1cc2nc3c(=O)[nH]c(=O)nc-3n(C[C@H](O)[C@H](O)[C@H](O)COP(=O)(O)OP(=O)(O)OC[C@H]3O[C@@H](n4cnc5c(N)ncnc54)[C@H](O)[C@@H]3O)c2cc1C [FAD],a single non-covalently bound FAD cofactor
372 ± 68,528 ± 63,NC(=O)C1=CN([C@@H]2O[C@H](COP(=O)(O)OP(=O)(O)OC[C@H]3O[C@@H](n4cnc5c(N)ncnc54)[C@H](OP(=O)(O)O)[C@@H]3O)[C@@H](O)[C@H]2O)C=CC1 [NADPH],
